# Results taken from US7727977B2, “Kynurenine 3-hydroxylase inhibitors for the treatment of diabetes” (Merck Patent Gesellschaft mit beschrankter Haftung, priority 2003, dated 2010).
# Tests used:
# [1] = molecular target: T1, kynurenine 3-hydroxylase (Rattus norvegicus, UniProt O88867); experiment: Inhibitory activity on kynurenine 3-hydroxylase in rat liver homogenate; type: biochemical; conditions: test concentration not given
# T1 construct: incubating 10 μL of the homogenate with NADPH (2 mM), kynurenine (100 μM); from tissue; host or cells: rat liver (pellet of the homogenate, resuspended)
# T1 sequence (O88867 whole entry): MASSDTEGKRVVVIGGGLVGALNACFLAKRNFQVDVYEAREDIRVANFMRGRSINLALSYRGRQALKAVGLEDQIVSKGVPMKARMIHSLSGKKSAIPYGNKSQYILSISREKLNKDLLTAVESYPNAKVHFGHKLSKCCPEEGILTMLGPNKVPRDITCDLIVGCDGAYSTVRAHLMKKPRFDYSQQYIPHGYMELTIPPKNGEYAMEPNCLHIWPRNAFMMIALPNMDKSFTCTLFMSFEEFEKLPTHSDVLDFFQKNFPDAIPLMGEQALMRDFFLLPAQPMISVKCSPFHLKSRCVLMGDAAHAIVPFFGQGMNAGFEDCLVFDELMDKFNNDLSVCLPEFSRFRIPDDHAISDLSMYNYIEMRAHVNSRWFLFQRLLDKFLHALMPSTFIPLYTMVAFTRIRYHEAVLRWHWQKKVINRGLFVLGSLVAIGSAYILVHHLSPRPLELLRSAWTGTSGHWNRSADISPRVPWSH
# Description: Study of the Inhibitory Activity on Kynurenine 3-hydroxylase in Rat Liver
# Rat livers are homogenised (1:8 weight/volume) in a buffer solution comprising: • 0.25 M sucrose • 50 mM pH 7.4 Tris; • 1 mM EDTA; and • 1 mM DTT.
# The homogenates are centrifuged for 10 minutes at 12 000 rpm. The pellets are resuspended in the buffer solution described above (1:2 weight/volume).
# The kynurenine 3-hydroxylase inhibition is determined by incubating 10 μL of the homogenate with NADPH (2 mM), kynurenine (100 μM) and various concentrations of the test compounds in a final volume of 100 μL at 37° C. for 5 minutes.
# The compounds are tested at concentrations of between 1 μM and 300 μM. 3,4-Dimethoxy-N-[4-(3-nitrophenyl)thiazol-2-yl]benzenesulfonamide is a compound from the company Hoffmann-LaRoche (Basle, see J. Med. Chem., 40 (1997), 4738). 30H-Kynurenine was tested according to the protocol described by Carpendo et al. (Neuroscience, 61 (1994), 237-244).
# Each of the experiments is repeated once and the IC50 values (in μmol/L) are calculated and given in the form of a mean of these two experiments.
# Results concerning representative examples of family Ih are given in Table II below, in which is indicated the measurement of the percentage of remaining kynurenine 3-hydroxylase activity relative to the control (100%).
# [2] = tested on: primary hepatocytes; experiment: Hepatic glucose production stimulated by AMPc/DEX in primary hepatocytes; type: cell-based, Wistar rats
# Description: (§1) Study of the Effect on Glucose Production by the Liver Materials and Method:
# The hepatocytes are isolated from the liver of Wistar rats fasted for 24 hours, according to the method described in Methods Cell Biol., 13 (1975), 29-83.
# 1) The hepatocytes are cultured for 16 to 18 hours in DMEM medium in the presence of AMP cyclase/dexamethasone at respective concentrations of 5×10^−5 M and 5×10^−7 M, with preincubation of the products at the test doses. After washing in pH 7.4 PBS buffer, the cells are incubated for three hours at 37° C. in a Krebs/AMPc/DEX buffer at the abovementioned concentrations. 0.1 μM insulin is used as reference substance. Two identical experiments are performed (Table III-1).
# Quantification of the glucose is performed via a colorimetric method using glucose oxidase (IL test™ Glucose, Monarch 181633-80). The protein assay is performed on the rest of the incubation medium via the Lowry method (BIO-RAD Dc protein assay, BIO-RAD 5000116).
# (§2) The results are expressed as nmoles of glucose produced per […] of proteins. The statistical test used is the t test.
# [3] = tested on: primary hepatocytes; experiment: Hepatic glucose production, basal lactate/pyruvate 2 hours, in primary hepatocytes; type: cell-based, Wistar rats; conditions: for HGP % of control: Basal Lact/Pyr 2 hours; for hepatic glucose production in vitro (result in words): primary rat hepatocytes, summary of Tables III and IV
# Description: as §1
# After washing in pH 7.4 PBS buffer, the cells are incubated for two hours at 37° C. in a Krebs buffer free of glucose and of insulin, containing lactate/pyruvate (10/1 mM) in the presence or absence of the test compounds. 10 μM MICA (5-methoxyindole-2-carboxylic acid) is used as reference substance. Two identical experiments are performed (Table III-2).
# The protein assay is performed on the rest of the incubation medium via the Lowry method (BIO-RAD Dc protein assay, BIO-RAD 5000116).
# as §2
# [4] = tested on: perfused isolated pancreases from N0 STZ diabetic rats; experiment: Secretion of insulin and glucagon in perfused isolated pancreases from N0 STZ diabetic rats; type: cell-based; conditions: absence of glucose, then 16.5 mM glucose; diabetic rat pancreas
# Description: Study of the Effect on the Secretion of the Pancreatic Hormones Insulin and Glucagon, in N0STZ Diabetic Rats
# The results are expressed as the mean±SEM (standard error of mean) of several experiments. The statistical test used is the Scheffé test.
compound,measurement,setting,value
2-(2′-naphthylthio)-4-phenyl-4-oxobutanoic acid [Ih-1],Remaining kynurenine 3-hydroxylase activity (% of control),[1],23.2%
same,HGP % of control,[2]; 1 μM,103 % of control
same,HGP % of control,[2]; 10 μM,83 % of control
same,HGP % of control,[2]; 100 μM,15 % of control
same,HGP % of control,[3]; 1 μM,10 % of control
same,HGP % of control,[3]; 10 μM,127 % of control
same,HGP % of control,[3]; 100 μM,95 % of control
same,hepatic glucose production in vitro (result in words),[3],powerful inhibitors of hepatic glucose production in vitro
"N[C@@H](Cc1c[nH]c2ccccc12)C(=O)O [Tryptophan, reference compound]",hepatic glucose production in vitro (result in words),[3],powerful inhibitors of hepatic glucose production in vitro
same,glucagon secretion (result in words),[4],stimulates glucagon secretion in a glucose-dependent manner
same,insulin secretion (result in words),[4],stimulates insulin secretion in a glucose-dependent manner
